Key:
MDA-MB-231.DR cells = assay: MTT cytotoxicity with PTX after siRNA nanoparticles, MDA-MB-231.DR; type: cell-based; details: Homo sapiens, 0.5 ng/mL PTX 48 hours, combination: nanoparticles 48 hours first, read-out: cell viability (MTT)
Procedure: (§1) Cytotoxicity assays were performed in a 96-well plate as described previously, by seeding 2,000 MDA-MB-231 or MDA-MB-231.DR cells/well. […] Next, the wells were washed twice with PBS and incubation with various concentrations of PTX in fresh media. After 2 additional days, the MTT reagent (Invitrogen) was added to the cells for 4 hours followed by the addition of SDS-HCl and further incubation for 4 hours. The absorbance of each well was measured at 570 nm using a SpectraMax spectrophotometer (Molecular Devices). Cellular viability was calculated as the average of the set of triplicates for each PTX concentration and was normalized relative to the no treatment control. Drug resistance was confirmed with an MTT assay to determine the IC50 of paclitaxel. The IC50 was defined as the dose of drug required to inhibit cell viability by 50%.

MDA-MB-231 cells = assay: MTT cytotoxicity with PTX after siRNA nanoparticles, MDA-MB-231; type: cell-based; details: Homo sapiens; MDA-MB-231, 0.5 ng/mL PTX 48 hours; combination: nanoparticles 48 hours first; read-out: cell viability (MTT)
Procedure: as §1

[1] = Zeta-potential of siRNA-lipid complexes (Malvern Zetasizer); type: physicochemical
Procedure: (§2) The cationic lipid carriers are dissolved in ethanol at a stock concentration of 2.5 mM, while all siRNA is reconstituted in nuclease-free water at a 0.25 μg/μL (18.8 μM) concentration. Nanoparticles are formulated by mixing the carriers with siRNA for a period of 30 min in RNase-free phosphate buffer saline (PBS) at pre-specified N/P ratios (N=number of protonable amines in lipid, P=number of phosphate groups in the siRNA). In preparing the lipoplexes, proper dilutions were made such that the volume ratio of ethanol:water was kept constant at 1:20. Minimizing the amount of ethanol is important because it is effective in dissolving lipids, thus inhibiting particle formation. The diameters (as determined by dynamic light scattering) and zeta potentials of all nanoparticles were analyzed using a Malvern Zetasizer instrument at pH=7.4. siRNA encapsulation efficiency was calculated using a RiboGreen fluorescence-based assay from Invitrogen, designed specifically for detection of free RNA at […] wavelengths of 480 and 520 nm, respectively. Nanoparticles were created with all carriers in the library so that final siRNA concentrations were 1.6 μg/mL. A linear standard curve was utilized to calculate the encapsulation efficiencies from signal intensities measured by a SpectraMax microplate reader (Molecular Devices).

[2] = test system: HT29 colon carcinoma cells; assay: Cellular uptake of Alexa Fluor 488-siRNA via flow cytometry; type: cell-based, human; details: HT29, N/P=18, 4 h, 100 nM Alexa Fluor 488-siRNA
Procedure: Flow cytometry was used to investigate the cellular uptake of our delivery system in HT29 colon carcinoma cells. All carriers in the library were formulated into nanoparticles by condensing Alexa Fluor 488-labeled siRNA at the optimal N/P ratio determined by the above luciferase knockdown studies. Approximately 50,000 cancer cells were seeded in 6-well plates and allowed to grow until 30-50% confluence was reached. The cancer cells were transfected with a 100 nM siRNA dose in serum-free media. After 4 h, the transfection media were aspirated and the cells were washed twice with PBS. The cells were then trypsinized, collected, and fixed with 2% paraformaldehyde in PBS, prior to flow cytometric analysis.

Red blood cells (RBCs) = assay: pH-sensitive hemolytic activity of carrier library; type: cell-based, rat; details: all N/P ratios (5, 10, 15) and pHs (7.4, 6.5, 5.4) tested
Procedure: Hemolytic activity of each carrier was determined to verify the pH-sensitive membrane disruption capabilities of each carrier in the delivery system. Red blood cells (RBCs) extracted from rats were purchased from Innovative Research Inc. (Novi, Mich.) and diluted 1:50 in PBS solutions of pHs=5.4, 6.5, or 7.4. A total of 100 μL of nanoparticles were created at N/P ratios of 5, 10, 15 and then incubated with 100 μL of diluted RBCs at 37° C. for 2 h. Nanoparticles were formulated so that the final amine concentration for all the samples, after mixing with the RBCs, was 150 μM. Multiple pHs were tested to predict if the nanoparticles could disrupt membranes of the endosomal-lysosomal compartments (pH=5-6), without affecting the integrity of the outer cell membrane prior to endocytosis (pH=7.4). The absorbance of each test sample was measured on a SpectraMax spectrophotometer at a wavelength of 540 nm in order to determine the amount of hemoglobin released from the RBCs, due to membrane destabilization, relative to that achieved by a positive control treatment of 1% (v/v) Triton-X100 surfactant during the 2 hour incubation period.

[3] = Nanoparticle diameter and polydispersity by dynamic light scattering (Malvern Zetasizer); type: physicochemical; details: for Nanoparticle diameter as measured by dynamic light scattering: siRNA-lipid complexes
Procedure: as §2

Zeta-potential of siRNA-lipid complexes ([1]; pH = 7.4, N/P = 2) [mV]	Zeta-potential of siRNA-lipid complexes ([1]; pH = 7.4, N/P = 5) [mV]	Zeta-potential of siRNA-lipid complexes ([1]; pH = 7.4, N/P = 8) [mV]	Zeta-potential of siRNA-lipid complexes ([1]; pH = 7.4, N/P = 10) [mV]	Zeta-potential of siRNA-lipid complexes ([1]; pH = 7.4, N/P = 15) [mV]	Polydispersity of siRNA-lipid complexes ([3]; N/P = 2)	Polydispersity of siRNA-lipid complexes ([3]; N/P = 5)	Polydispersity of siRNA-lipid complexes ([3]; N/P = 8)	Polydispersity of siRNA-lipid complexes ([3]; N/P = 10)	Polydispersity of siRNA-lipid complexes ([3]; N/P = 15)	Nanoparticle diameter as measured by dynamic light scattering ([3]; N/P = 2) [nm]	Nanoparticle diameter as measured by dynamic light scattering ([3]; N/P = 5) [nm]	Nanoparticle diameter as measured by dynamic light scattering ([3]; N/P = 8) [nm]	Nanoparticle diameter as measured by dynamic light scattering ([3]; N/P = 10) [nm]	Nanoparticle diameter as measured by dynamic light scattering ([3]; N/P = 15) [nm]	Structure (SMILES)	viability at 0.0005 µg/mL (MDA-MB-231.DR cells) [%]	viability at 0.0005 µg/mL (MDA-MB-231 cells) [%]	cellular uptake, mean fluorescence intensity (MFI) [2]	hemolytic activity relative to Triton X-100 (Red blood cells (RBCs))
															CC(=O)O[C@H]1C(=O)[C@@]2(C)[C@H]([C@H](OC(=O)c3ccccc3)[C@]3(O)C[C@H](OC(=O)[C@H](O)[C@@H](NC(=O)c4ccccc4)c4ccccc4)C(C)=C1C3(C)C)[C@]1(OC(C)=O)CO[C@@H]1C[C@@H]2O [PTX, paclitaxel]	80.7 ± 2.9	44.6 ± 6.6		
−28.35 ± 3.61	26.89 ± 1.85	26.03 ± 2.25	28.59 ± 2.25	17.15 ± 2.99	0.298	0.233	0.140	0.184	0.180	482 ± 40	185 ± 22	51 ± 14	50 ± 12	48 ± 12	CCCCC/C=C\C/C=C\CCCCCCCC(=O)NC(CS)C(=O)NCCNC(=O)CCN(CCCNCCCCNCCCN)CCC(=O)NCCNC(=O)C(CS)NC(=O)CCCCCCC/C=C\C/C=C\CCCCC (stereo not shown) [SCLn]			4066±185	greatest hemolytic activity

Source: patent US11129845B2, “Compositions and methods for the delivery of nucleic acids” (CASE WESTERN RESERVE UNIVERSITY, priority 2014, dated 2021)
